Experimental data reported in PubChem BioAssay (NCI).
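Interpolation was linear, between the two tested concentrations surrounding the appropriate level; five concentrations were tested over 48 hours in 96-well plates. TGI: concentration producing complete growth inhibition.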

Key:
Experiment in all cases: inhibition of tumour cell growth, NCI panel, 48 h
SF-539 CNS = system: SF-539 CNS
SF-295 CNS = system: SF-295 CNS
SR leukemia = system: SR leukemia
SNB-75 CNS = system: SNB-75 CNS
BT-549 breast = system: BT-549 breast
IGROV1 ovarian = system: IGROV1 ovarian
HL-60(TB) leukemia = system: HL-60(TB) leukemia
OVCAR-4 ovarian = system: OVCAR-4 ovarian
MOLT-4 leukemia = system: MOLT-4 leukemia
SN12C renal = system: SN12C renal
A498 renal = system: A498 renal
HCT-15 colon = system: HCT-15 colon
NCI-H460 lung = system: NCI-H460 lung
DU-145 prostate = system: DU-145 prostate
COLO 205 colon = system: COLO 205 colon
HCT-116 colon = system: HCT-116 colon
CCRF-CEM leukemia = system: CCRF-CEM leukemia
EKVX NSCLC = system: EKVX NSCLC
A549 NSCLC = system: A549 NSCLC
OVCAR-8 ovarian = system: OVCAR-8 ovarian
KM12 colon = system: KM12 colon
SW-620 colon = system: SW-620 colon
HT29 colon = system: HT29 colon
U251 CNS = system: U251 CNS
HCC-2998 colon = system: HCC-2998 colon
NCI-H23 lung = system: NCI-H23 lung
SK-MEL-28 melanoma = system: SK-MEL-28 melanoma
UO-31 renal = system: UO-31 renal
TK-10 renal = system: TK-10 renal
OVCAR-3 ovarian = system: OVCAR-3 ovarian
MALME-3M melanoma = system: MALME-3M melanoma
RPMI-8226 leukemia = system: RPMI-8226 leukemia
LOX IMVI melanoma = system: LOX IMVI melanoma
K-562 leukemia = system: K-562 leukemia
786-0 renal = system: 786-0 renal
ACHN renal = system: ACHN renal
MDA-MB-435 = system: MDA-MB-435
HS 578T breast = system: HS 578T breast
NCI-H522 lung = system: NCI-H522 lung
HOP-62 NSCLC = system: HOP-62 NSCLC
MCF7 breast = system: MCF7 breast
CAKI-1 renal = system: CAKI-1 renal
NCI/ADR-RES ovarian = system: NCI/ADR-RES ovarian
MDA-N = system: MDA-N
NCI-H226 lung = system: NCI-H226 lung
T-47D breast = system: T-47D breast
SK-MEL-5 melanoma = system: SK-MEL-5 melanoma
UACC-257 melanoma = system: UACC-257 melanoma
HOP-92 NSCLC = system: HOP-92 NSCLC
PC-3 prostate = system: PC-3 prostate
UACC-62 melanoma = system: UACC-62 melanoma
MDA-MB-231 breast = system: MDA-MB-231 breast
SF-268 CNS = system: SF-268 CNS
SK-OV-3 ovarian = system: SK-OV-3 ovarian
OVCAR-5 ovarian = system: OVCAR-5 ovarian
RXF 393 renal = system: RXF 393 renal
SK-MEL-2 melanoma = system: SK-MEL-2 melanoma
SNB-19 CNS = system: SNB-19 CNS

Cc1ccc(C2=Nn3c(nc4sc(-c5ccccc5)cc4c3=O)SC2)cc1
TGI (SF-539 CNS): > 100 µM | TGI (SF-295 CNS): > 100 µM | TGI (SR leukemia): > 100 µM | TGI (SNB-75 CNS): > 100 µM | TGI (BT-549 breast): > 100 µM | TGI (IGROV1 ovarian): > 100 µM | TGI (HL-60(TB) leukemia): > 100 µM | TGI (OVCAR-4 ovarian): > 100 µM | TGI (MOLT-4 leukemia): > 100 µM | TGI (SN12C renal): > 100 µM | TGI (A498 renal): > 100 µM | TGI (HCT-15 colon): > 100 µM | TGI (NCI-H460 lung): > 100 µM | TGI (DU-145 prostate): > 100 µM | TGI (COLO 205 colon): > 100 µM | TGI (HCT-116 colon): > 100 µM | TGI (CCRF-CEM leukemia): > 100 µM | TGI (EKVX NSCLC): > 100 µM | TGI (A549 NSCLC): > 100 µM | TGI (OVCAR-8 ovarian): > 100 µM | TGI (KM12 colon): > 100 µM | TGI (SW-620 colon): > 100 µM | TGI (HT29 colon): > 100 µM | TGI (U251 CNS): > 100 µM | TGI (HCC-2998 colon): > 100 µM | TGI (NCI-H23 lung): > 100 µM | TGI (SK-MEL-28 melanoma): > 100 µM | TGI (UO-31 renal): > 100 µM | TGI (TK-10 renal): > 100 µM | TGI (OVCAR-3 ovarian): > 100 µM | TGI (MALME-3M melanoma): > 100 µM | TGI (RPMI-8226 leukemia): > 100 µM | TGI (LOX IMVI melanoma): > 100 µM | TGI (K-562 leukemia): > 100 µM | TGI (786-0 renal): > 100 µM | TGI (ACHN renal): > 100 µM | TGI (MDA-MB-435): > 100 µM | TGI (HS 578T breast): > 100 µM | TGI (NCI-H522 lung): > 100 µM | TGI (HOP-62 NSCLC): > 100 µM | TGI (MCF7 breast): > 100 µM | TGI (CAKI-1 renal): > 100 µM | TGI (NCI/ADR-RES ovarian): > 100 µM | TGI (MDA-N): > 100 µM | TGI (NCI-H226 lung): > 100 µM | TGI (T-47D breast): > 100 µM | TGI (SK-MEL-5 melanoma): > 100 µM | TGI (UACC-257 melanoma): > 100 µM | TGI (HOP-92 NSCLC): > 100 µM | TGI (PC-3 prostate): > 100 µM | TGI (UACC-62 melanoma): > 100 µM | TGI (MDA-MB-231 breast): > 100 µM | TGI (SF-268 CNS): > 100 µM | TGI (SK-OV-3 ovarian): > 100 µM | TGI (OVCAR-5 ovarian): > 100 µM

COC(=O)CNC(=O)/C=C/[C@H](O[Si](C)(C)C(C)(C)C)[C@H](/C=C/C(=O)NCC(=O)OC)O[Si](C)(C)C(C)(C)C
TGI (SF-539 CNS): > 25 µM | TGI (SF-295 CNS): > 25 µM | TGI (SR leukemia): > 25 µM | TGI (SNB-75 CNS): > 25 µM | TGI (BT-549 breast): > 25 µM | TGI (IGROV1 ovarian): > 25 µM | TGI (RXF 393 renal): > 25 µM | TGI (OVCAR-4 ovarian): > 25 µM | TGI (MOLT-4 leukemia): > 25 µM | TGI (SN12C renal): > 25 µM | TGI (A498 renal): > 25 µM | TGI (HCT-15 colon): > 25 µM | TGI (NCI-H460 lung): > 25 µM | TGI (DU-145 prostate): > 25 µM | TGI (COLO 205 colon): > 25 µM | TGI (HCT-116 colon): > 25 µM | TGI (SK-MEL-2 melanoma): > 25 µM | TGI (CCRF-CEM leukemia): > 25 µM | TGI (EKVX NSCLC): > 25 µM | TGI (A549 NSCLC): > 25 µM | TGI (OVCAR-8 ovarian): > 25 µM | TGI (KM12 colon): > 25 µM | TGI (SW-620 colon): > 25 µM | TGI (HT29 colon): > 25 µM | TGI (U251 CNS): > 25 µM | TGI (HCC-2998 colon): > 25 µM | TGI (NCI-H23 lung): > 25 µM | TGI (SK-MEL-28 melanoma): > 25 µM | TGI (UO-31 renal): > 25 µM | TGI (TK-10 renal): > 25 µM | TGI (OVCAR-3 ovarian): > 25 µM | TGI (MALME-3M melanoma): > 25 µM | TGI (RPMI-8226 leukemia): > 25 µM | TGI (LOX IMVI melanoma): > 25 µM | TGI (K-562 leukemia): > 25 µM | TGI (786-0 renal): > 25 µM | TGI (ACHN renal): > 25 µM | TGI (MDA-MB-435): > 25 µM | TGI (HS 578T breast): > 25 µM | TGI (NCI-H522 lung): > 25 µM | TGI (HOP-62 NSCLC): > 25 µM | TGI (MCF7 breast): > 25 µM | TGI (CAKI-1 renal): > 25 µM | TGI (SNB-19 CNS): > 25 µM | TGI (NCI/ADR-RES ovarian): > 25 µM | TGI (MDA-N): > 25 µM | TGI (NCI-H226 lung): > 25 µM | TGI (T-47D breast): > 25 µM | TGI (SK-MEL-5 melanoma): > 25 µM | TGI (UACC-257 melanoma): > 25 µM | TGI (HOP-92 NSCLC): > 25 µM | TGI (PC-3 prostate): > 25 µM | TGI (UACC-62 melanoma): > 25 µM | TGI (MDA-MB-231 breast): > 25 µM | TGI (SF-268 CNS): > 25 µM | TGI (SK-OV-3 ovarian): > 25 µM | TGI (OVCAR-5 ovarian): > 25 µM
